Data on 1 substance can be found in patent US9415007B2, “Cyanocobalamin low viscosity aqueous formulations for intranasal delivery” (PAR PHARMACEUTICAL INC., priority 2003, dated 2016).

The nature of data set [1]: Uptake of Vitamin B12 into cerebrospinal fluid after intranasal and intramuscular administration. Format: in vivo, human. As to conditions: intranasal administration compared with intramuscular injections. An excerpt: We conducted a non-blinded, single dose, parallel group study to compare the uptake of Vitamin B12 into the cerebrospinal fluid (CSF) after intranasal and intramuscular administration in healthy male and non-pregnant female volunteers. This study compared CSF levels to plasma levels produced by both formulations.
Thirty-six healthy male and non-pregnant female subjects, age 18 and over, were enrolled in the study. Eighteen subjects received a single intranasal dose of 500 mcg delivered as a 0.1 mL spray and eighteen subjects received a single intramuscular dose of 100 mcg delivered intramuscularly. Each subject visited the clinical site three times in a one-month period. These visits consisted of a screening visit, one dosing visit and a final visit.
After each dosing, each subject underwent lumbar puncture only once, with the retrieval of a total 4.0 mL of CSF (4 tubes, 1.0 mL per tube).
In addition to the above, on the day of dosing 7 mL blood samples were drawn before dosing and post dosing at 5, 10, 15 and 20 minutes, and at 0.5, 1, 1½, 2, 3, 4, 6, and 8 hours post-dose (prior to discharge).
The cerebrospinal fluid was evaluated for total Vitamin B12 content. […]
The levels of vitamin B12 were determined in both the CSF and blood serum using Vitamin B12 concentrations in the CSF will be analyzed for Qualitative determination of Vitamin B12 using a validated TOSOH Nex. […]

The conditions of data set [2]: prior art (Merkus); not soluble at concentrations greater than; cited from earlier work.

Regarding “5,6-dimethyl-benzimidazolyl cyanocobamide [vitamin B12]”, in data set [1], the “ratio of vitamin B12 (CSF) to serum, intranasal versus intramuscular” value was “higher”. In data set [2], the “solubility in an aqueous solution” value is on record as at most 1%.
